Laboratory results from US20020143059A1, “Skin care product containing retinoids, retinoid booster and phytoestrogens in a dual compartment package” (priority 2000, published 2002).
pIC50: −log10 of the molar value. Each block holds one compound with its values, some of them ahead of it.

Legend:
[1] = test system: retinoic acid oxidation (cytochrome P450 systems); test: Assay for NADPH Dependent Retinoic Acid Oxidation, liver microsomes; assay type: biochemical, rat; conditions: for % Inhibition Retinoic Acid (100 μM): 100 μM compound; for % Inhibition Retinoic Acid (10 μM): 10 μM compound
[2] = Retinol stability in the presence of boosters (OD 360 nm); assay type: physicochemical; conditions: booster approximately 0.1%, 60 hours at room temperature in the dark, approx. 50% aqueous ethanol
Description: Retinol (50% in tween 80) was dissolved in approximately 50% aqueous ethanol to provide a solution giving an OD at 360 nm of approximately 0.6 when measured in a 200 μl volume in a 96 well plate using a standard 96 well spectrophotometer.
Booster molecules were added at approximately 0.1% concentration and the OD 360 measured as above immediately and after 60 hours at room temperature in the dark. A correction was applied to the OD after 60 hours (divide by 0.85) to account for increased concentration of the retinol due to evaporation of solvent from the plate.

TGase I = test: Transglutaminase (TGase I ELISA) assay in cultured keratinocytes; assay type: cell-based; conditions: booster in combination with a constant retinol concentration of 10^−7M; read-out: Overall TG (IC 50)
ARAT = test: Assay for ARAT activity, RPE microsomes; assay type: biochemical, bovine; conditions: for % Inhibition ARAT (10 μm): 10 μm compound; for % Inhibition ARAT (100 μm): 100 μm compound
LRAT = molecular target: T1, LRAT (Bos taurus, UniProt Q9BGL2); test: Assay for LRAT activity, RPE microsomes; assay type: biochemical, bovine; conditions: for % Inhibition LRAT (10 μm): 10 μm compound; for % Inhibition LRAT (100 μm): 100 μm compound
T1 construct: followed by approximately 15 μg of RPE microsomal protein; tissue W. L. Lawson Co., Lincoln, Nebr; host or cells: bovine retinal pigment epithelium microsomes
T1 sequence (Q9BGL2 1-230): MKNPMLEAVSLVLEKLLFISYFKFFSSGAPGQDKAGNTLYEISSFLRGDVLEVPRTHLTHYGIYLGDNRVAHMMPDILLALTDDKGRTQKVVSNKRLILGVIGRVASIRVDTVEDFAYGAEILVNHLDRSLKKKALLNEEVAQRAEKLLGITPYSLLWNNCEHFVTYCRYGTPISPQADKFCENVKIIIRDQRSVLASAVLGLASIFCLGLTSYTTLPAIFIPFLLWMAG

- % Inhibition Retinoic Acid (100 μM) [1]: 47%
SMILES: CC(C)(C(=O)c1cccnc1)c1cccnc1 [2-Methyl-1,2-di-3-Pyridyl-1-Propane]

SMILES: Oc1cccc2cccnc12 [8 OH QUINOLINE]
- FOLD INCREASE IN RATE OF RETINOL LOSS [2]: 1.5 fold

- pIC50 (TGase I): 6.07
SMILES: O=c1c2cccc3cccc(c32)c2nc3ccccc3n12 [(7H-Benzimidazo[2,1-a]Benz[de]-Isoquinolin-7-one]

- pIC50 (TGase I): 5.17
- % Inhibition LRAT (10 μm) (LRAT): 10% +/− 10
- % Inhibition LRAT (100 μm) (LRAT): 50% +/− 18
SMILES: CCCCCCCCCCCCC/C=C/[C@@H](O)[C@H](CO)NC(C)=O [Acetyl Sphingosine]
- % Inhibition ARAT (10 μm) (ARAT): 19% +/− 12
- % Inhibition ARAT (100 μm) (ARAT): 62% +/− 11

- pIC50 (TGase I): 3.47
- % Inhibition LRAT (10 μm) (LRAT): 87% +/− 6
- % Inhibition LRAT (100 μm) (LRAT): 98% +/− 1
SMILES: C/C=C\C(=O)C1C(C)=CCCC1(C)C (stereo not drawn) [Alpha-Damascone]

- % Inhibition LRAT (100 μm) (LRAT): 77%
SMILES: CCC(=O)/C=C/C1C(C)=CCCC1(C)C (stereo not drawn) [Alpha-Methyl Ionone]
- % Inhibition ARAT (100 μm) (ARAT): 67%

SMILES: CC(=O)/C=C/C1C(C)=CCCC1(C)C (stereo not drawn) [Alpha=Ionone]
- pIC50 (TGase I): 3.03
- FOLD INCREASE IN RATE OF RETINOL LOSS [2]: 1.3 fold

- % Inhibition LRAT (10 μm) (LRAT): 52%
- % Inhibition LRAT (100 μm) (LRAT): 92%
SMILES: C/C=C/C(=O)C1=C(C)CCCC1(C)C [Beta-Damascone]

- % Inhibition Retinoic Acid (10 μM) [1]: 89%
- % Inhibition Retinoic Acid (100 μM) [1]: 100%
SMILES: c1ccc(-c2ccc(C(c3ccccc3)n3ccnc3)cc2)cc1 (stereo not drawn) [Bifonazole]

- % Inhibition LRAT (100 μm) (LRAT): 75%
SMILES: CC1=CCC(CCC(C)CO)C1(C)C (stereo not drawn) [Brahmanol]
- % Inhibition ARAT (100 μm) (ARAT): 70%

- FOLD INCREASE IN RATE OF RETINOL LOSS [2]: 1.4 fold
SMILES: O=c1ccc2ccccc2o1 [COUMARIN]

- FOLD INCREASE IN RATE OF RETINOL LOSS [2]: 3.1 fold
SMILES: CC(C)=CCCC(C)=CC=O [Citral]
- % Inhibition ARAT (100 μm) (ARAT): 20%

SMILES: CC(C)=CCCC(C)CCO (stereo not drawn) [Citronellol]
- % Inhibition ARAT (100 μm) (ARAT): 30%

- % Inhibition Retinoic Acid (10 μM) [1]: 80%
- % Inhibition Retinoic Acid (100 μM) [1]: 92%
SMILES: CC(C)(C)C(=O)C(Oc1ccc(Cl)cc1)n1ccnc1 (stereo not drawn) [Climbazole]

- % Inhibition Retinoic Acid (10 μM) [1]: 76%
SMILES: Clc1ccccc1C(c1ccccc1)(c1ccccc1)n1ccnc1 [Clotrimazole]

SMILES: CC(/C=C/C=C(\C)C(=O)O)=C\C=C\C=C(C)\C=C\C=C(/C)C(=O)O [Crocetin]
- % Inhibition ARAT (10 μm) (ARAT): 15%
- % Inhibition ARAT (100 μm) (ARAT): 34%

- % Inhibition LRAT (10 μm) (LRAT): 29%
- % Inhibition LRAT (100 μm) (LRAT): 79%
SMILES: C/C=C/C(=O)C1=C(C)C=CCC1(C)C [Damascenone]

- % Inhibition LRAT (10 μm) (LRAT): 64%
- % Inhibition LRAT (100 μm) (LRAT): 95%
SMILES: C/C=C/C(=O)C1C(C)C=CCC1(C)C (stereo not drawn) [Delta-Damascone]

SMILES: CC(=O)CCC1C(C)=CCCC1(C)C (stereo not drawn) [Dihydro Alpha-Ionone]
- % Inhibition ARAT (100 μm) (ARAT): 13%
- % Inhibition LRAT (100 μm) (LRAT): 18%

- % Inhibition LRAT (10 μm) (LRAT): 0%
- % Inhibition LRAT (100 μm) (LRAT): 17% +/− 17
SMILES: CCCCCCCC(=O)OC[C@H](COP(=O)(O)OCCN)OC(=O)CCCCCCC [Dioctylphosphatidyl Ethanolamine]
- % Inhibition ARAT (10 μm) (ARAT): 23%

- % Inhibition Retinoic Acid (10 μM) [1]: 88%
- % Inhibition Retinoic Acid (100 μM) [1]: 100%
SMILES: Clc1ccc(COC(Cn2ccnc2)c2ccc(Cl)cc2Cl)cc1 (stereo not drawn) [Econazole]

- % Inhibition LRAT (100 μm) (LRAT): 49%
SMILES: CCOC(=O)C1=C(C)C=CCC1(C)C [Ethyl Saffranate]

SMILES: CC(C)=CCCC(C)=CCCC(C)=CCO [Farnesol]
- % Inhibition ARAT (10 μm) (ARAT): 23% +/− 18
- % Inhibition ARAT (100 μm) (ARAT): 53% +/− 18

SMILES: CC12CCC(C1)C(C)(C)C2O (stereo not drawn) [Fenchyl Alcohol]
- % Inhibition ARAT (100 μm) (ARAT): 12%

- % Inhibition LRAT (100 μm) (LRAT): 38%
SMILES: CC(=O)/C(C)=C/C1C(C)=CCCC1(C)C (stereo not drawn) [Gamma-Methyl Ionone]

- FOLD INCREASE IN RATE OF RETINOL LOSS [2]: 1.3 fold
SMILES: CC(C)=CCC/C(C)=C/CO [Geraniol]
- % Inhibition ARAT (10 μm) (ARAT): 13%
- % Inhibition ARAT (100 μm) (ARAT): 32%

SMILES: CC(C)=CCC/C(C)=C/CC/C(C)=C/CC/C(C)=C/CO [Geranyl Geraniol]
- % Inhibition ARAT (10 μm) (ARAT): 38% +/− 12
- % Inhibition ARAT (100 μm) (ARAT): 81% +/− 6

SMILES: CCCCCC(N)=O [Hexanoamide]
- % Inhibition ARAT (100 μm) (ARAT): 20%

- pIC50 (TGase I): 4.00
- % Inhibition LRAT (100 μm) (LRAT): 37% +/− 9
SMILES: CCCCCCCCCCCCC/C=C/[C@@H](O)[C@H](CO)NC(=O)CCCCC [Hexanoyl Sphingosine]

- pIC50 (TGase I): 4.48
- % Inhibition LRAT (100 μm) (LRAT): 35%
SMILES: CCCCCCCCCCC(O)C(=O)NCCO (stereo not drawn) [Hydroxyethyl-2-Hydroxy-C12 Amide]

- % Inhibition LRAT (100 μm) (LRAT): 16%
SMILES: CC1=CC(C)C(CO)C(C)C1 (stereo not drawn) [Isocyclogeraniol]
- % Inhibition ARAT (100 μm) (ARAT): 18%

- % Inhibition LRAT (100 μm) (LRAT): 92%
SMILES: CC=CC(=O)C1CCC(C)(C)C=C1C (stereo not drawn) [Isodamascone]
- % Inhibition ARAT (100 μm) (ARAT): 80%
